Patent EP0726261A1, “Herbidical 1,2,4 thiadiazoles” (American Cyanamid Company, priority 1995, dated 1996)

How the values were obtained:
Assay type in all cases: in vivo
[1] = system: Avena fatua; assay: Herbicidal activity, preemergence test (Example 66); set-up: key: A rating of 0 indicates growth as untreated control; a rating of 9 indicates death; conditions: pre; 1000 g/ha; assessed visually twenty days after spraying
Experimental: (§1) To evaluate their herbicidal activity, compounds according to the invention are tested using a representative range of plants: ZEAMX Zea mays ORYSA Oryza sativa GLXMA Glycine max BEAVA Beta vulgaris LIUUT Linum usitatissimum AVEFA Avena fatua ECHCG Echinochloa crus-galli SINAL Sinapsis alba
(§2) The tests fall into two categories, preemergence and postemergence. The preemergence tests involve spraying a liquid formulation of the compound onto the soil in which the seeds of the plant species mentioned above have recently been sown. The postemergence tests involve spraying a liquid formulation of the compound onto seedling plants of the above species.
(§3) The soil used in the tests is a prepared horticultural loam.
(§4) The formulations used in the tests are prepared from solutions of the test compounds in acetone containing 0.4% by weight of an alkylphenol/ethylene oxide condensate available under the trademark TRITON X-155. These acetone solutions are diluted with water and the resulting formulations applied at dosage levels corresponding to 1000 g of active material per hectare in a volume equivalent to 900 litres per hectare.
(§5) In the preemergence tests, untreated sown soil, and in the postemergence tests, untreated soil bearing seedling plants, are used as controls.
(§6) The herbicidal effects of the test compounds are assessed visually twenty days after spraying the foliage and the soil and are recorded on a 0-9 scale. A rating of 0 indicates growth as untreated control, a rating of 9 indicates death. An increase of 1 unit on the linear scale approximates to an 11% increase in the level of effect.

[2] = system: Beta vulgaris; assay: as above; set-up: key: A rating of 0 indicates growth as untreated control; a rating of 9 indicates death; conditions: pre; 1000 g/ha; assessed visually twenty days after spraying
Experimental: as §1, §2, §3, §4, §5, §6

[3] = system: Echinochloa crus-galli; assay: as above; set-up: key: A rating of 0 indicates growth as untreated control; a rating of 9 indicates death; conditions: pre; 1000 g/ha; assessed visually twenty days after spraying
Experimental: as §1, §2, §3, §4, §5, §6

[4] = system: Glycine max; assay: as above; set-up: key: A rating of 0 indicates growth as untreated control; a rating of 9 indicates death; conditions: pre; 1000 g/ha; assessed visually twenty days after spraying
Experimental: as §1, §2, §3, §4, §5, §6

[5] = system: Linum usitatissimum; assay: as above; set-up: key: A rating of 0 indicates growth as untreated control; a rating of 9 indicates death; conditions: pre; 1000 g/ha; assessed visually twenty days after spraying
Experimental: as §1, §2, §3, §4, §5, §6

[6] = system: Oryza sativa; assay: as above; set-up: key: A rating of 0 indicates growth as untreated control; a rating of 9 indicates death; conditions: pre; 1000 g/ha; assessed visually twenty days after spraying
Experimental: as §1, §2, §3, §4, §5, §6

[7] = system: Sinapsis alba; assay: as above; set-up: key: A rating of 0 indicates growth as untreated control; a rating of 9 indicates death; conditions: pre; 1000 g/ha; assessed visually twenty days after spraying
Experimental: as §1, §2, §3, §4, §5, §6

[8] = system: Zea mays; assay: as above; set-up: key: A rating of 0 indicates growth as untreated control; a rating of 9 indicates death; conditions: pre; 1000 g/ha; assessed visually twenty days after spraying
Experimental: as §1, §2, §3, §4, §5, §6

[9] = system: Glycine max; assay: Herbicidal activity, postemergence test (Example 66); conditions: post; 1000 g/ha; assessed visually twenty days after spraying
Experimental: as §1, §2, §3, §4, §5, §6

[10] = system: Avena fatua; assay: as above; set-up: key: A rating of 0 indicates growth as untreated control; a rating of 9 indicates death; conditions: post; 1000 g/ha; assessed visually twenty days after spraying
Experimental: as §1, §2, §3, §4, §5, §6

[11] = system: Beta vulgaris; assay: as above; set-up: key: A rating of 0 indicates growth as untreated control; a rating of 9 indicates death; conditions: post; 1000 g/ha; assessed visually twenty days after spraying
Experimental: as §1, §2, §3, §4, §5, §6

[12] = system: Echinochloa crus-galli; assay: as above; set-up: key: A rating of 0 indicates growth as untreated control; a rating of 9 indicates death; conditions: post; 1000 g/ha; assessed visually twenty days after spraying
Experimental: as §1, §2, §3, §4, §5, §6

[13] = system: Linum usitatissimum; assay: as above; set-up: key: A rating of 0 indicates growth as untreated control; a rating of 9 indicates death; conditions: post; 1000 g/ha; assessed visually twenty days after spraying
Experimental: as §1, §2, §3, §4, §5, §6

[14] = system: Oryza sativa; assay: as above; set-up: key: A rating of 0 indicates growth as untreated control; a rating of 9 indicates death; conditions: post; 1000 g/ha; assessed visually twenty days after spraying
Experimental: as §1, §2, §3, §4, §5, §6

[15] = system: Sinapsis alba; assay: as above; set-up: key: A rating of 0 indicates growth as untreated control; a rating of 9 indicates death; conditions: post; 1000 g/ha; assessed visually twenty days after spraying
Experimental: as §1, §2, §3, §4, §5, §6

[16] = system: Zea mays; assay: as above; set-up: key: A rating of 0 indicates growth as untreated control; a rating of 9 indicates death; conditions: post; 1000 g/ha; assessed visually twenty days after spraying
Experimental: as §1, §2, §3, §4, §5, §6

Which results are given for `CC(NC(=O)c1nsc(-c2ccc(Cl)cc2)n1)c1cccs1` (racemic) [Example 23, (R/S)-5-(4-Chlorophenyl)-[1,2,4]thiadiazole-3-carboxylic acid, [1-(2-thienyl)ethyl]amide]?
herbicidal effects on a 0-9 scale, AVEFA [1]: 0; herbicidal effects on a 0-9 scale, BEAVA [2]: 0; herbicidal effects on a 0-9 scale, ECHCG [3]: 0; herbicidal effects on a 0-9 scale, GLXMA [4]: 0; herbicidal effects on a 0-9 scale, LIUUT [5]: 0; herbicidal effects on a 0-9 scale, ORYSA [6]: 0; herbicidal effects on a 0-9 scale, SINAL [7]: 0; herbicidal effects on a 0-9 scale, ZEAMX [8]: 0; herbicidal effects on a 0-9 scale, GLXMA [9]: 7; herbicidal effects on a 0-9 scale, AVEFA [10]: 4; herbicidal effects on a 0-9 scale, BEAVA [11]: 9; herbicidal effects on a 0-9 scale, ECHCG [12]: 8; herbicidal effects on a 0-9 scale, LIUUT [13]: 7; herbicidal effects on a 0-9 scale, ORYSA [14]: 0; herbicidal effects on a 0-9 scale, SINAL [15]: 9; herbicidal effects on a 0-9 scale, ZEAMX [16]: 0

How did the “herbicidal effects on a 0-9 scale, AVEFA” value [1] turn out when `O=C(NCc1cccs1)c1nc(-c2ccc(F)cc2)ns1` [Example 14] was run?
The value was 0.

And the “herbicidal effects on a 0-9 scale, BEAVA” value [2]?
Its value is 0.

What about the “herbicidal effects on a 0-9 scale, ECHCG” value [3] of the same molecule?
Its value is 0.

And the “herbicidal effects on a 0-9 scale, GLXMA” value [4]?
Its value is 0.

What about the “herbicidal effects on a 0-9 scale, LIUUT” value [5] of the same molecule?
The value was 0.

What about the “herbicidal effects on a 0-9 scale, ORYSA” value [6] of the same molecule?
Its value is 0.

And the “herbicidal effects on a 0-9 scale, SINAL” value [7]?
The value was 0.

And the “herbicidal effects on a 0-9 scale, ZEAMX” value [8]?
Its value is 0.

And the “herbicidal effects on a 0-9 scale, GLXMA” value [9]?
The value was 2.

What about the “herbicidal effects on a 0-9 scale, AVEFA” value [10] of the same molecule?
The value was 0.

And the “herbicidal effects on a 0-9 scale, BEAVA” value [11]?
Its value is 8.

What about the “herbicidal effects on a 0-9 scale, ECHCG” value [12] of the same molecule?
The value was 2.

And the “herbicidal effects on a 0-9 scale, LIUUT” value [13]?
The value was 5.

And the “herbicidal effects on a 0-9 scale, ORYSA” value [14]?
The value was 0.

What about the “herbicidal effects on a 0-9 scale, SINAL” value [15] of the same molecule?
Its value is 8.

And the “herbicidal effects on a 0-9 scale, ZEAMX” value [16]?
The value was 0.
